This note sets out measurements from patent EP0407583A1, “DERIVATIVES OF DICHLOR[…] ACYLAMIDO[…] AND INSECTICIDAL, FU[…] HEMATOCIDAL PREPARATIONS BASED ON THEM” (priority 1989, dated 1990).

The structures appear in SMILES notation.

The test system of test [1] is Aspergillus niger. Nature of the test: Inhibition of phytopathogenic fungi growth, laboratory test on potato-dextrose agar. It is filed as cell-based. The following applies: active principle 0.01 % by mass in potato-dextrose agar. The method, then:
(§1) A fungicidal composition based on this compound was prepared in the form of a 0.01% solution thereof in distilled water. A fungicidal action of the composition, according to the invention, was tested for inhibition of vegetative fungi growth such as Fusarium moniliforme, Ventura inaequalis, Rhyzoctonia ciolaceae, Botrytis cinereae, Verticillium albo-atrum, Diplodia zeae, Fusarium oxysporum, Rhoma betae, Rhyzoctonia aderholdii, Aspergillus niger, Alternaria sobani, Botrytis allii, Aspergillus fumigatis, Fusarium culmorum, Penicillium cyclopium affecting potato, sugar beet, cotton seeds either in laboratory or field conditions. For testing it to the Petri dishes containing potato-dextrose agar the composition of the invention was.added at the concentration of an active principle of 0.01 % by mass. The Petri dishes containing the same agar culture were inoculated with a mycelium of phytopathogenic fungi. For control dishes the phytopathogenic fungi were inoculated on agar without using the composition of the invention. A fungicidal effect of the composition, according to the invention was tested in comparison with the known fungicidal compositions based on 2,3-dichloro-1,4-naphthoquinone, zinc N,N'-ethylene-bis-dithiocarbamate and tetramethylthiuram disulphide.

The test system of test [2] is Botrytis allii. The test is described as above. Format: cell-based. The following applies: active principle 0.01 % by mass in potato-dextrose agar. On the procedure: as §1
Test [3] has as its system Rhyzoctonia violaceae. The description is as above. It is filed as cell-based. To be noted: active principle 0.01 % by mass in potato-dextrose agar. On the procedure:
as §1

Test [4] relates to Aspergillus fumigatis. Described as above. To be noted: active principle 0.01 % by mass in potato-dextrose agar. It is filed as cell-based. The method, then:
as §1

For test [5], the system named is Fusarium oxysporum. The test is described as above. To be noted: active principle 0.01 % by mass in potato-dextrose agar. Format: cell-based. The method, then:
as §1

Test [6] deals with Alternaria sobani. The test is described as above. It is filed as cell-based. The following applies: active principle 0.01 % by mass in potato-dextrose agar. The method, then:
as §1

Test [7] relates to Rhyzoctonia aderholdii. The test is described as above. To be noted: active principle 0.01 % by mass in potato-dextrose agar. It is filed as cell-based. The method, then: as §1
For test [8], the system named is Venturia inaequalis. Described as above. It is filed as cell-based. The following applies: active principle 0.01 % by mass in potato-dextrose agar. The method, then:
as §1

Test [9] concerns Fusarium culmorum. The description is as above. Format: cell-based. The following applies: active principle 0.01 % by mass in potato-dextrose agar. On the procedure:
as §1

Test [10] relates to Diplodia zeae. The test is described as above. The following applies: active principle 0.01 % by mass in potato-dextrose agar. Format: cell-based. The method, then: as §1
Test [11] relates to Verticillium albo-atrum. The test is described as above. Format: cell-based. To be noted: active principle 0.01 % by mass in potato-dextrose agar. The method, then: as §1
Test [12] has as its system Rhoma betae. The test is described as above. It is filed as cell-based. To be noted: active principle 0.01 % by mass in potato-dextrose agar. The method, then:
as §1

Test [13] relates to Penicillium cyclopium. The test is described as above. Format: cell-based. To be noted: active principle 0.01 % by mass in potato-dextrose agar. On the procedure: as §1
In test [14] the test system is Botrytis cinereae. The description is as above. The following applies: active principle 0.01 % by mass in potato-dextrose agar. Format: cell-based. On the procedure: as §1
Test [15] deals with Fusarium moniliforme. The test is described as above. Format: cell-based. To be noted: active principle 0.01 % by mass in potato-dextrose agar. The method, then:
as §1

The test system of test [16] is Aspergillus niger. As to the kind of experiment: Inhibition of phytopathogenic fungi, field test on affected potato plants. Format: in vivo. The following applies: 5 m^2 plots of affected potato plants sprayed. An excerpt: (§2) For field tests the plots of 5 m^2 in size with potato plants affected by Fusarium moniliforme, Venturia inaequalis, Rhyzoctonia violaceae, Botrytis cinereae, Verticillium albo-atrum, Diplodia zeae, Fusarium oxysporum, Rhoma betae, Rhyzoctonia aderholdii, Aspergillus niger, Alternaria sobani, Botrytis allii, Aspergillus fumigatis, Fusarium culmorum, Penicillium cyclopium were sprayed with the fungicide of the invention. To compare, the similar plots of the affected potato plants were aprayed with the known compositions indicated above.

Test [17] relates to Botrytis allii. Described as above. To be noted: 5 m^2 plots of affected potato plants sprayed. Format: in vivo.
Excerpt: as §2

The test system of test [18] is Rhyzoctonia violaceae. Described as above. It is filed as in vivo. The following applies: 5 m^2 plots of affected potato plants sprayed.
Excerpt: as §2

In test [19] the test system is Aspergillus fumigatis. Described as above. It is filed as in vivo. To be noted: 5 m^2 plots of affected potato plants sprayed.
Excerpt: as §2

For test [20], the system named is Fusarium oxysporum. The test is described as above. It is filed as in vivo. The following applies: 5 m^2 plots of affected potato plants sprayed.
Excerpt: as §2

Test [21] deals with Alternaria sobani. The description is as above. Format: in vivo. The following applies: 5 m^2 plots of affected potato plants sprayed.
Excerpt: as §2

Test [22] deals with Rhyzoctonia aderholdii. Described as above. Format: in vivo. The following applies: 5 m^2 plots of affected potato plants sprayed.
Excerpt: as §2

The subject of test [23] is Venturia inaequalis. Described as above. It is filed as in vivo. To be noted: 5 m^2 plots of affected potato plants sprayed.
Excerpt: as §2

Test [24] relates to Fusarium culmorum. Described as above. It is filed as in vivo. The following applies: 5 m^2 plots of affected potato plants sprayed.
Excerpt: as §2

Test [25] relates to Diplodia zeae. The test is described as above. It is filed as in vivo. The following applies: 5 m^2 plots of affected potato plants sprayed.
Excerpt: as §2

For test [26], the system named is Verticillium albo-atrum. The description is as above. To be noted: 5 m^2 plots of affected potato plants sprayed. It is filed as in vivo.
Excerpt: as §2

For test [27], the system named is Rhoma betae. Described as above. It is filed as in vivo. The following applies: 5 m^2 plots of affected potato plants sprayed.
Excerpt: as §2

Test [28] relates to Penicillium cyclopium. The test is described as above. To be noted: 5 m^2 plots of affected potato plants sprayed. Format: in vivo.
Excerpt: as §2

The subject of test [29] is Botrytis cinereae. The test is described as above. To be noted: 5 m^2 plots of affected potato plants sprayed. Format: in vivo.
Excerpt: as §2

Test [30] deals with Fusarium moniliforme. The test is described as above. Format: in vivo. The following applies: 5 m^2 plots of affected potato plants sprayed.
Excerpt: as §2

`O=C(NP(=O)(Nc1ccc(Cl)cc1Cl)Nc1ccc(Cl)cc1Cl)c1ccc(Br)cc1` [Example 13, para-bromobenzoylamidophosphoric acid di-2,4-dichloroanil-ide]: the “Inhibition of growth of phytopathogenic fungi colonies, % Aspergillus niger test laboratory” value in the test with Aspergillus niger [1] came to 35%. In the test with Botrytis allii [2], the “Inhibition of growth of phytopathogenic fungi colonies, % Botrytis allii test laboratory” value is listed as 100%. In the test on Rhyzoctonia violaceae [3], the “Inhibition of growth of phytopathogenic fungi colonies, % Rhyzoctonia violaceae test laboratory” value is 46%. In addition, the “Inhibition of growth of phytopathogenic fungi colonies, % Aspergillus fumigatis Tests laboratory” value with Aspergillus fumigatis [4] is recorded as 53%. Also, in the test on Fusarium oxysporum [5], the “Inhibition of growth of phytopathogenic fungi colonies, % Fusarium oxysporum test laboratory” value stood at 44%. In addition, the “Inhibition of growth of phytopathogenic fungi colonies, % Alternaria sobani test laboratory” value in the test on Alternaria sobani [6] was 100%. In the test with Rhyzoctonia aderholdii [7], the “Inhibition of growth of phytopathogenic fungi colonies, % Rhyzoctonia aderholdii test laboratory” value is given as 100%. Moreover, in the test on Venturia inaequalis [8], the “Inhibition of growth of phytopathogenic fungi colonies, % Venturia inaequalis test laboratory” value is reported as 45%. Besides, the “Inhibition of growth of phytopathogenic fungi colonies, % Fusarium culmorum Tests laboratory” value with Fusarium culmorum [9] is reported as 100%. The “Inhibition of growth of phytopathogenic fungi colonies, % Diplodia zeae test laboratory” value with Diplodia zeae [10] came to 100%. In addition, the “Inhibition of growth of phytopathogenic fungi colonies, % Verticillium albo--atrum test laboratory” value in the test with Verticillium albo-atrum [11] turned out to be 47%. Further, the “Inhibition of growth of phytopathogenic fungi colonies, % Rhoma betae test laboratory” value with Rhoma betae [12] was determined as 64%. Also, in the test on Penicillium cyclopium [13], the “Inhibition of growth of phytopathogenic fungi colonies, % Penicillium cyclopium Tests laboratory” value was determined as 100%. For the same compound, the “Inhibition of growth of phytopathogenic fungi colonies, % Botrytis cinereae test laboratory” value with Botrytis cinereae [14] amounted to 0%. For the same compound, in the test on Fusarium moniliforme [15], the “Inhibition of growth of phytopathogenic fungi colonies, % Fusatium monili-forme test laboratory” value came out at 75%. The “Inhibition of growth of phytopathogenic fungi colonies, % Aspergillus niger test field” value in the test on Aspergillus niger [16] came to 34%. In the test on Botrytis allii [17], the “Inhibition of growth of phytopathogenic fungi colonies, % Botrytis allii test field” value is given as 100%. The “Inhibition of growth of phytopathogenic fungi colonies, % Rhyzoctonia violaceae test field” value with Rhyzoctonia violaceae [18] worked out at 47%. Further, in the test on Aspergillus fumigatis [19], the “Inhibition of growth of phytopathogenic fungi colonies, % Aspergillus fumigatis Tests field” value is given as 50%. The “Inhibition of growth of phytopathogenic fungi colonies, % Fusarium oxysporum test field” value in the test with Fusarium oxysporum [20] worked out at 43%. The “Inhibition of growth of phytopathogenic fungi colonies, % Alternaria sobani test field” value in the test with Alternaria sobani [21] was determined as 100%. The “Inhibition of growth of phytopathogenic fungi colonies, % Rhyzoctonia aderholdii test field” value with Rhyzoctonia aderholdii [22] is listed as 100%. Also, the “Inhibition of growth of phytopathogenic fungi colonies, % Venturia inaequalis test field” value in the test with Venturia inaequalis [23] was 44%. The “Inhibition of growth of phytopathogenic fungi colonies, % Fusarium culmorum Tests field” value with Fusarium culmorum [24] came to 93%. In the test on Diplodia zeae [25], the “Inhibition of growth of phytopathogenic fungi colonies, % Diplodia zeae test field” value is 100%. Further, the “Inhibition of growth of phytopathogenic fungi colonies, % Verticillium albo--atrum test field” value with Verticillium albo-atrum [26] was found to be 46%. For the same compound, the “Inhibition of growth of phytopathogenic fungi colonies, % Rhoma betae test field” value with Rhoma betae [27] is 62%. In addition, in the test on Penicillium cyclopium [28], the “Inhibition of growth of phytopathogenic fungi colonies, % Penicillium cyclopium Tests field” value is 93%. In addition, the “Inhibition of growth of phytopathogenic fungi colonies, % Botrytis cinereae test field” value in the test on Botrytis cinereae [29] is on record as 0%. For the same compound, in the test on Fusarium moniliforme [30], the “Inhibition of growth of phytopathogenic fungi colonies, % Fusatium monili-forme test field” value is on record as 74%.
For `CN(C)C(=S)SSC(=S)N(C)C` [tetramethylthi-uram disulphide, tetramethylthiuram disulphide, reference compound], in the test on Aspergillus niger [1], the “Inhibition of growth of phytopathogenic fungi colonies, % Aspergillus niger test laboratory” value was 100%. The “Inhibition of growth of phytopathogenic fungi colonies, % Aspergillus fumigatis Tests laboratory” value with Aspergillus fumigatis [4] is reported as 81%. Moreover, the “Inhibition of growth of phytopathogenic fungi colonies, % Rhyzoctonia aderholdii test laboratory” value in the test with Rhyzoctonia aderholdii [7] was 100%. Also, the “Inhibition of growth of phytopathogenic fungi colonies, % Fusarium culmorum Tests laboratory” value in the test on Fusarium culmorum [9] is given as 100%. For the same compound, in the test with Rhoma betae [12], the “Inhibition of growth of phytopathogenic fungi colonies, % Rhoma betae test laboratory” value stood at 60%. In addition, in the test with Penicillium cyclopium [13], the “Inhibition of growth of phytopathogenic fungi colonies, % Penicillium cyclopium Tests laboratory” value is 65%. In addition, the “Inhibition of growth of phytopathogenic fungi colonies, % Aspergillus niger test field” value in the test with Aspergillus niger [16] is recorded as 98%. In addition, in the test on Aspergillus fumigatis [19], the “Inhibition of growth of phytopathogenic fungi colonies, % Aspergillus fumigatis Tests field” value turned out to be 80%. In addition, the “Inhibition of growth of phytopathogenic fungi colonies, % Rhyzoctonia aderholdii test field” value with Rhyzoctonia aderholdii [22] turned out to be 99%. For the same compound, the “Inhibition of growth of phytopathogenic fungi colonies, % Fusarium culmorum Tests field” value with Fusarium culmorum [24] is 98%. For the same compound, the “Inhibition of growth of phytopathogenic fungi colonies, % Rhoma betae test field” value in the test on Rhoma betae [27] amounted to 59%. For the same compound, the “Inhibition of growth of phytopathogenic fungi colonies, % Penicillium cyclopium Tests field” value in the test with Penicillium cyclopium [28] was found to be 64%.
